Measurements as given in patent US20240116939A1, “CHIRAL OR RACEMIC PYRIMIDINE-FUSED DIAZEPINONE DERIVATIVES, PREPARATION METHOD, AND APPLICATION THEREOF” (SUN YAT-SEN UNIVERSITY, priority 2021, published 2024).

Legend:
PC12 cells [1] = test: MTT cell viability of corticosterone (CORT)-induced PC12 cells (in vitro depression model); conditions: for viability at 0.625 µM: PC-12, read-out: Cell viability (%), PC12 cells pretreated with 600 μM corticosterone 24 h; for viability at 0.625 µM / Cell viability (%) / Culture time needed to exert effect on cell survival: drug 0.625 uM; for viability at 0.625 µM / Cell viability (%): 24 h culture, average of three independent experiments; for viability at 0.625 µM / Cell viability (%) / Effect on death rate of cells caused by CORT (cell survival rate): MTT; for Cell viability (%): PC12 cells pretreated with 600 μM corticosterone 24 h; for Effect on death rate of cells caused by CORT (cell survival rate): 0.625-20 uM at 12 h, 0.625 uM at 12, 24, 48 h, A and B of FIG. 2; for Culture time needed to exert effect on cell survival: B of FIG. 2
Method: PC12 cells are purchased from Procell Life Science & Technology Co., Ltd. (Wuhan, China). All cell culture reagents are purchased from Life Technologies (Grand Island, Nebraska, USA). Cells are cultured in Dulbecco's modified Eagle's medium (Gibco, USA) including 10% fetal calf serum (Gibco, USA) at 37° C. in an incubator including 5% CO2.
Corticosterone (CORT)-induced PC12 cells are usually used to establish the depression model in vitro.
Cell viability is measured by using MTT [3-(4,5-dimethyl-2-thiazolyl)-2,5-diphenyl-2H-tetrazolium bromide].

PC12 cells [2] = test: Hoechst and PI staining of PC12 cell apoptosis; assay type: cell-based; conditions: drug 1.0 uM, 48 hours
Method: PC12 cell apoptosis is detected by Hoechst and PI staining. Hoechst can bind to cell nucleus of living cells, while PI (propidium iodide) can bind to the nucleuses of dead cells. The PC12 cells are plated in 12-well plates, and after being treated with drugs for 48 hours, the PC12 cells are stained with the nuclear dye Hoechst. The PC12 cells are washed twice with PBS and continued to be incubated with 10 mg/L Hoechst in the incubator for 20 min, For PI staining, the PC12 cells are incubated with a working solution including PI (final concentration 1 μg/mL) at room temperature for 10 min […] The PC12 cells are observed and photographed by a fluorescence microscope (Zeiss, Germany), and the results are shown in FIGS. 2 and 3. Blue fluorescence (white background) represents living cells, and red fluorescence (black background) represents dead cells.

GR = test: Western blotting of GR in CORT-treated PC12 cells; assay type: cell-based; conditions: Western blot; 0.625 uM; A and B of FIG. 3
Method: (§1) PC12 cells are lysed in RIPA lysis solution including 1% phenylmethylsulfonyl fluoride (PMSF) on ice for 30 minutes, the supernatant solution is collected and centrifuged, and the protein concentration of the supernatant solution is measured by a BCA assay kit (Beyotime, Shanghai). Protein samples are loaded onto 10% SDS-polyacrylamide gel electrophoresis and then further transferred to PVDF membrane (Millipore, MA, USA). The PVDF membrane is blocked with 5% non-fat milk and then incubated with a single primary antibody at 4° C. overnight. After washing with Tris-buffered saline containing Tween-20 (0.1%) (TBST), the PVDF membrane is incubated with secondary antibodies at room temperature. The PVDF membrane is analyzed by ECL reagents (Beyotime, Shanghai) and a BIO-RAD ChemiDoc XRS system. Protein band intensity is performed by Image J software (The National Institutes of Health, Bethesda, MD, USA).

cofilin-1 = test: Western blotting of cofilin-1 in CORT-treated PC12 cells; assay type: cell-based; conditions: Western blot; 0.625 uM; A and B of FIG. 3
Method: as §1

NF-κB = test: Western blotting of NF-κB in CORT-treated PC12 cells; assay type: cell-based; conditions: Western blot; 0.625 uM; A and B of FIG. 3
Method: as §1

Compound | PC12 cell death / apoptosis caused by corticosterone (blue and red fluorescence number) (PC12 cells [2]) | viability at 0.625 µM (PC12 cells [1]; Rattus norvegicus) [%] | melting point [°C] | other results
C[C@]12C[C@H](O)[C@H]3[C@@H](CCC4=CC(=O)CC[C@@]43C)[C@@H]1CC[C@@H]2C(=O)CO [CORT, corticosterone, reference compound] |  |  |  | Cell viability (%) with corticosterone alone (PC12 cells [1]; PC12 cells, 600 μM corticosterone, 24 hours, no drug (model group)): 60.5 ± 3.6%; viability at 600 µM (PC12 cells [1]; Rattus norvegicus, PC-12, 24 h, read-out: Cell viability (%) with corticosterone alone, PC12 cells, 600 μM corticosterone, 24 hours, no drug (model group)): 60%
C=C[C@H]1CN(Cc2ccccc2)C(=O)c2cnc(C)nc2N1c1ccccc1 [(S)-I-10, (S)-6-benzyl-2-methyl-9-phenyl-8-vinyl-6,7,8,9-tetrahydro-5H-pyrimido[4,5-e][1,4]diazepin-5-one] | higher number of blue fluorescence than (R)-I-9 | 97.8 ± 3.4 |  | 
C=C[C@@H]1CN(Cc2ccccc2)C(=O)c2cnc(Nc3ccccc3)nc2N1c1ccccc1 [(R)-I-18, (R)-6-benzyl-9-phenyl-2-anilino-8-vinyl-6,7,8,9-tetrahydro-5H-pyrimido[4,5-e][1,4]diazepine-5-one] |  | 75.2 ± 4.4 | 232.1 to 232.3 | 
C=C[C@@H]1CN(Cc2ccccc2)C(=O)c2cnc(N3CCOCC3)nc2N1c1ccccc1 [(R)-I-1, (R)-6-benzyl-2-morpholino-9-phenyl-8-vinyl-6,7,8,9-tetrahydro-5H-pyrimido [4,5-e][1,4]diazapine-5-one] |  |  |  | Cell viability (%) (PC12 cells [1]): 82.8 ± 2.5%
CNCCC(Oc1ccc(C(F)(F)F)cc1)c1ccccc1 (stereo not drawn) [fluoxetine, reference compound] | can reduce cell death | 76.8 ± 6.4 |  | Expression of GR (GR): promote the expression of GR; Overexpression of cofilin-1 (cofilin-1): inhibit the overexpression; Effect on death rate of cells caused by CORT (cell survival rate) (PC12 cells [1]): can effectively reduce the death rate of cells caused by CORT; Culture time needed to exert effect on cell survival (PC12 cells [1]): 48 h
C=C[C@@H]1CN(Cc2ccccc2)C(=O)c2cnc(-c3ccco3)nc2N1c1ccccc1 [Compound I-16, (R)-6-benzyl-2-(2-furyl)-9-phenyl-8-vinyl-6,7,8,9-tetrahydro-5H-pyrimido[4,5-e][1,4]diazepin-5-one] |  |  | 178.5 to 178.6 | 
C=C[C@@H]1CN(Cc2ccccc2)C(=O)c2cnc(OC)nc2N1c1ccccc1 [(R)-I-9, (R)-6-benzyl-2methoxy-9-phenyl-8-vinyl-6,7,8,9-tetrahydro-5H-pyrimido[4,5-e][1,4]diazepin-5-one] | can reverse the massive apoptosis of the PC12 cells caused by corticosterone | 85.4 ± 2.9 |  | Expression of GR (GR): promote the expression of GR; Overexpression of cofilin-1 (cofilin-1): inhibit the overexpression; Overexpression of NF-κB (NF-κB): inhibit the overexpression
C=C[C@H]1CN(Cc2ccccc2)C(=O)c2cnc(-c3cnccc3OC)nc2N1c1ccccc1 [(S)-I-17, (S)-6-benzyl-2-(4-methoxy-3-pyridyl)-9-phenyl-8-vinyl-6,7,8,9-tetrahydro-5H-pyrimido[4,5-e][1,4]diazepin-5-one] | can reverse the massive apoptosis of the PC12 cells caused by corticosterone | 96.9 ± 2.7 |  | Expression of GR (GR): promote the expression of GR; Overexpression of cofilin-1 (cofilin-1): inhibit the overexpression; Overexpression of NF-κB (NF-κB): inhibit the overexpression
C=C[C@@H]1CN(Cc2ccccc2)C(=O)c2cnc(-c3ccccc3)nc2N1c1ccccc1 [(R)-I-13, (R)-6-benzyl-2,9-diphenyl-8-vinyl-6,7,8,9-tetrahydro-5H-pyrimido[4,5-e][1,4]diazepine-5-one] |  | 81.9 ± 4.5 | 212.7 to 213.6 | 
C=C[C@H]1CN(Cc2ccccc2)C(=O)c2cnc(N3CCOCC3)nc2N1CCC [(S)-I-5, (S)-6-benzyl-2-morpholino-9-propyl-8-vinyl-6,7,8,9-tetrahydro-5H-pyrimido[4,5-e][1,4]diazepine-5-one] |  | 89.4 ± 2.9 |  | 
C=C[C@H]1CN(Cc2ccccc2)C(=O)c2cnc(-c3cccc4ccccc34)nc2N1c1ccccc1 [(S)-I-14, (S)-6-benzyl-2-(1-naphthyl)-9-phenyl-8-vinyl-6,7,8,9-tetrahydro-5H-pyrimido[4,5-e][1,4]diazepin-5-one] |  | 88.1 ± 4.7 | 227.2 to 227.4 | Survival rate of PC12 cells, comparison of chiral configurations (PC12 cells [1]; 0.625 uM, B, C and D of FIG. 4): can increase the survival rate better than their corresponding racemates
C=C[C@H]1CN(Cc2ccccc2)C(=O)c2cnc(N3CCN(C)CC3)nc2N1c1ccccc1 [(S)-I-11, (S)-6-benzyl-2-(4-methyl-1-piperazinyl)-9-phenyl-8-vinyl-6,7,8,9-tetrahydro-5H-pyrimido[4,5-e]diazepine-5-one] | can reduce cell death |  |  | Effect on death rate of cells caused by CORT (cell survival rate) (PC12 cells [1]): can effectively reduce the death rate of cells caused by CORT; Culture time needed to exert effect on cell survival (PC12 cells [1]): 12 h
C=C[C@@H]1CN(Cc2ccccc2)C(=O)c2cnc(N3CCOCC3)nc2N1Cc1ccccc1 [(R)-I-8, (R)-6,9-dibenzyl-2-morpholinyl-8-vinyl-6,7,8,9-tetrahydro-5H-pyrimido[4,5-e][1.4]diazepine-5-one] |  |  |  | Cell viability (%) (PC12 cells [1]): 82.0 ± 2.0%
C=C[C@H]1CN(Cc2ccccc2)C(=O)c2cnc(N3CCCC3)nc2N1c1ccccc1 [(S)-I-12, (S)6-benzyl-9-phenyl-2-(1-tetrahydropyrrolyl)-8-vinyl-6,7,8,9-tetrahydro-5H-pyrimido[4,5-e][1,4]diazepin-5-one] |  | 98.6 ± 3.1 | 153.8 to 154.3 | 
